Assay results as given in patent US6610744B2, “Methods of treatment with compounds having RARα receptor specific or selective activity” (Allergan, Inc., priority 1995, dated 2003).
Values after ≈ are worked out from the molar mass of the structure shown.

What was measured:
[1] = test system: RPMI 8226 cells (malignant myeloma); assay: RPMI 8226 cell culture assay (3H-thymidine incorporation); format: cell-based, human; details: FIG. 1; low concentration range 10^−12 to approximately 10^−9
Description: (§1) All trans-retinoic acid (t-RA) (Sigma Chemicals Co., St. Louis, Mo.) was stored at −70° C. Prior to each experiment the compound was dissolved in 100% ethanol at 1 mM and diluted in culture medium immediately before use. All experiments were performed in subdued light. Controls were assayed using the same concentration of ethanol as present in the experimental plates and this concentration of diluent had no effect in either assay.
The cell lines, RPMI 8226, ME-180 and AML-193 were obtained from the American Type Culture Collection (ATCC, Rockville, Md.). RPMI 8226 is a human hematopoietic cell line obtained from the peripheral blood of a patient with multiple myeloma. The cells resemble the lymphoblastoid cells of other human lymphocyte cell lines and secrete […] light chains of immunoglobulin. RPMI-8226 cells are grown in RPMI medium (Gibco) supplemented with 10% fetal bovine serum, glutamine and antibiotics. The cells were maintained as suspension cultures grown at 37° C. in a humidified atmosphere of 5% CO2 in air. The cells were diluted to a concentration of 1×10^5/ml twice a week.
(§2) The method used for determination of the incorporation of radiolabeled thymidine was adapted from the procedure described by Shrivastav et al. RPMI-8226 cells were plated in a 96 well round bottom microtiter plate (Costar) at a density of 1,000 cells/well. To appropriate wells, retinoid test compounds were added at the final concentrations indicated for a final volume of 150 μl/well. The plates were incubated for 96 hours at 37° C. in a humidified atmosphere of 5% CO2 in air. Subsequently, 1 μCi of [5′-^3H]-thymidine (Amersham, U.K. 43 Ci/mmol specific activity) in 25 μl culture medium was added to each well and the cells were incubated for an additional 6 hours. The cultures were further processed as described below.
(§3) The cell lines were then processed as follows: the cellular DNA was precipitated with 10% trichloroacetic acid onto glass fiber filter mats using a SKATRON multi-well cell harvester (Skatron Instruments, Sterling Va.). Radioactivity incorporated into DNA, as a direct measurement of cell growth, was measured by liquid scintillation counting. The numbers represent the mean disintegrations per minute of incorporated thymidine from triplicate wells±SEM.

[2] = test system: AML-193 cells (acute monocytic leukemia); assay: AML 193 cell culture assay (3H-thymidine incorporation); format: cell-based, human; details: FIG. 3; low concentrations
Description: as §1
AML-193 was established from the blast cells classified as M5 Acute Monocyte Leukemia. The growth factor, […] (GM-CSF) was required to establish this cell line and growth factors are necessary for its continuous proliferation in chemically defined medium. AML-193 cells were grown and maintained in Iscove's modified Dulbecco's medium supplemented with 10% fetal bovine serum, glutamine and antibiotics with 5 μg/ml insulin (Sigma Chemical Co.) and 2 ng/ml rh GM-CSF (R and D Systems). The cells were diluted to a concentration of 3×10^5/ml twice a week.
as §2, with “AML-193” for “The method used for determination of the incorporation of radiolabeled thymidine was adapted from the procedure described by Shrivastav et al. RPMI-8226”, “U.K.,” for “U.K.”, “hours.” for “hours. The cultures were further processed as described below.”
as §3

[3] = test system: limb bud mesenchymal cells; assay: Chondrogenesis suppression bioassay (teratogenic potency); format: cell-based; details: read-out: IC50 (50% inhibition of chondrogenesis); mouse limb bud spot cultures, 96 hours after plating; greater IC50 signifies lesser teratogenecity
Description: High-density “spot” cultures of limb bud mesenchymal cells are used to compare the ability of various concentrations of test drugs to suppress chondrogenic differentiation as a bioassay. Forelimb buds of mouse embryos on day 12 of gestation (54±2 somites) are dissociated in a trypsin-EDTA solution, and the resultant single-cell suspension is plated as 20-μl spots (200,000 cells/spot) on plastic culture dishes. Retinoid concentrations ranging from 0.3 ng/ml to 3 μg/ml (1 nM−10 μM) are added to the culture medium (Eagle's MEM±10% fetal bovine serum, GIBCO) 24 hours after initial plating. Control cultures receive only the vehicle (ethanol, concentration≦1% by vol); Retinoic acid is used as a positive control in another set of cultures.
The cultures are terminated 96 hours after plating, at which time the medium is removed and the cells are fixed for 1 hour in 10% formalin containing 0.5% cetylpyridinium chloride. The cultures are rinsed in acetic acid and stained for 1 hour in 0.5% Alcian blue solution at pH 1.0, differentiated in 3% acetic acid, and then dehydrated in ethanol and scored for chondrogenesis under the microscope. An absence or reduction in the number of cartilage nodules in stained cultures as compared with control cultures is taken as a measure of suppression of chondrogenesis. The number of cartilage nodules stained in the whole spot, mean number of nodules, and standard deviations are calculated for four replicate cultures per treatment. […] The IC50 values are expressed in nanogram per mililiter (ng/ml) units. An IC50 value of greater concentration in this assay signifies lesser teratogenecity.

[4] = test system: retinal pigment epithelium (RPE) cells; assay: Primary RPE culture proliferation; format: cell-based, human; details: FIG. 5; 10^−10 to 10^−6 M, six days treatment
Description: Primary cultures of human retinal pigment epithelium (RPE) were established from eyes as previously described, (Campochiaro et al., Invest. Opthal & Vis. Sci. 32:65-72 (1991)). 5×10^4 Cells were plated in 16-mm wells of 24-well multiwell plates in Dulbecco's modified Eagle's medium (DMEM Gibco) containing 10% fetal bovine serum (FBS). Cells were treated with ethanol alone (control), ATRA (10^−10 to 10^−6 M) in ethanol, and Compound 42 (10^−10 to 10^−6 M) in ethanol. Cells were fed with fresh media containing the appropriate concentrations of these compounds every two days for a total of six days treatment. Cells were removed from the plates via treatment with trypsin and the number of cells were counted with an electronic cell counter.

[5] = test system: ovarian tumor cells; assay: EDR assay on cells from solid tumors of patients; format: cell-based, human; details: FIG. 4; tumors from 4 patients, four days with drug
Description: Freshly resected solid tumor biopsies were received within 24 hours of surgery. Species were processed for assay after retaining a portion of the tumor for paraffin embedding and histopathologic confirmation of specimen viability and tissue diagnosis. The remaining specimen was dissociated into small fragments using sterile scissors. The small tissue fragments were then exposed to collagenase and DNAase for 2 hours with mixing a CO2 incubator in order to release the tumor cells from the connective tissue stroma. The resulting cell suspension was washed, and cell counts determined from a cytospin preparation. Tumor cells were resuspended at 40,000 cells per ml in 0.3% agarose in RMPI 1640 supplemented with 15% FCS, glutamine and antibiotics, and 0.5 ml were plated into each well of a 24 well plate over 0.5 ml layer of 0.5% agarose. These culture conditions prevent cell adherence, thereby allowing only transformed cells to proliferate. Additionally, the cells grow into three dimensional spheroids, recapitulating their in vivo morphology.
Retinoid drugs were added 24 hours after plating to insure specimen reequilibration to a growth environment after the rigors of transport and processing. […] After the agarose-cell suspension was liquefied at 90° C., cells were harvested onto glass fiber filters, which were counted in 5 ml scintillation fluid using a Beckman 6500 liquid scintillation counter. […]

SMILES	growth of RPMI 8226 cells at low concentration [1]	AML-193 cell proliferation at low concentrations [2]	IC50 [3]	RPE cell proliferation [4]	ovarian tumor cell proliferation [5]
CC1=C(/C=C/C(C)=C/C=C/C(C)=C/C(=O)O)C(C)(C)CCC1 [ATRA, all trans retinoic acid, reference compound]	facilitates growth	promotes cell proliferation	0.055 µg/mL (≈ 0.183 µM)	dose dependent decrease in RPE cell proliferation	–
CC1(C)CCC(C)(C)c2cc(C(=O)Nc3ccc(C(=O)O)c(F)c3)ccc21 [Compound 2]	–	–	–	–	inhibits this tumor cell proliferation in a concentration dependent manner
